Assay: in-vitro dripping (seepage) assay: distance traveled by a drop down an inclined glass plate
Format: physicochemical
Description: An in-vitro assay is utilized which measures the distance traveled by a 10 µ1 drop of the test formulation down a glass plate inclined at 45°C for 10 seconds. The test formulation is colored with dye to enhance the visual movement of the product. Pure ethanol (Ethanol, U.S.P) is used as the standard against which the test formulation is compared. […] The solvent system for each test formulation is 50:50 EtOH:HOH.
The ratio of the distance traveled ("dripping distance") by the particular test formulation to that of the ethanol standard provides the "dripping index" number for the test formulation.

In the case of `CCO` [100% Ethanol, Ethanol], the “Dripping Distance” value (10 µ1 drop, glass plate inclined at 45°C, 10 seconds, solvent 50:50 EtOH:HOH) is reported as 60 mm and the “Dripping Index” value (ratio of dripping distance of the test formulation to that of the ethanol standard) is reported as 1.00.

Reference: patent EP0188793A1, “Improved topical minoxidil composition” (Richardson-Vicks, Inc., priority 1984, dated 1986)
